{"source": "patent US9113629B2", "about": "“4-amino-6-(4-substituted-phenyl)-picolinates and 6-amino-2-(4-substituted-phenyl)-pyrimidine-4-carboxylates and their use as herbicides” (DOW AGROSCIENCES LLC, priority 2013, dated 2015)", "experiment_in_all_cases": "Post-emergent Test III, herbicidal activity in wheat and barley", "type_in_all_cases": "in vivo", "key": {"[1]": {"tested_on": "SASKR: Russian thistle (Salsola iberica)", "details": "Table 8, 21 d; for pest or weed control at 35 g/ha: 35 g ai/ha; for pest or weed control at 70 g/ha: 70 g ai/ha; for GR50 SASKR: dose for 50 percent growth reduction; for GR50 SASKR / GR80 SASKR: probit analysis; for GR80 SASKR: dose for 80 percent growth reduction", "method_in_brief": "(§1)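 Plants at the second to third true-leaf stage, grown in a greenhouse at about 18/17 °C with a 14 h photoperiod, were sprayed post-emergence at 187 L/ha with the high rate and ½× to 1/16× serial dilutions in an acetone/DMSO/crop-oil/surfactant carrier. Injury was rated visually at 21 d on a 0–100% scale, and GR20–GR90 were derived by probit analysis.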"}, "[2]": {"tested_on": "GALAP: cleavers (Galium aparine)", "details": "Table 8, 21 d; for pest or weed control at 35 g/ha: 35 g ai/ha; for pest or weed control at 70 g/ha: 70 g ai/ha; for GR50 GALAP: dose for 50 percent growth reduction; for GR50 GALAP / GR80 GALAP: probit analysis; for GR80 GALAP: dose for 80 percent growth reduction", "method_in_brief": "as §1"}, "[3]": {"tested_on": "CIRAR: Canada thistle (Cirsium arvense)", "details": "Table 8, 21 d; for pest or weed control at 35 g/ha: 35 g ai/ha; for pest or weed control at 70 g/ha: 70 g ai/ha; for GR50 CIRAR: dose for 50 percent growth reduction; for GR50 CIRAR / GR80 CIRAR: probit analysis; for GR80 CIRAR: dose for 80 percent growth reduction", "method_in_brief": "as §1"}, "[4]": {"details": "Salsola tragus, post-emergence, 504 h, post-emergent, read-out: Visual Growth Reduction (%) 21 Days After Application SASKR"}, "[5]": {"details": "Galium aparine, post-emergence, 504 h, post-emergent, read-out: Visual Growth Reduction (%) 21 Days After Application GALAP"}, "[6]": {"details": "Cirsium arvense, post-emergence, 504 h, post-emergent, read-out: Visual Growth Reduction (%) 21 Days After Application CIRAR"}}, "data": [{"smiles": "COC(=O)c1nc(-c2ccc(I)c(F)c2)c(C)c(N)c1Cl", "note": "[Compound 79, Methyl 4-amino-3-chloro-6-(3-fluoro-4-iodophenyl)-5-methylpicolinate]", "values": [{"measurement": "pest or weed control at 35 g/ha", "setting": "[1]; [4]", "value": "75 to 84", "unit": "%"}, {"measurement": "pest or weed control at 70 g/ha", "setting": "[1]; [4]", "value": "85 to 94", "unit": "%"}, {"measurement": "GR50 SASKR", "setting": "[1]", "value": 11, "unit": "g ai/ha"}, {"measurement": "GR80 SASKR", "setting": "[1]", "value": 43, "unit": "g ai/ha"}, {"measurement": "pest or weed control at 35 g/ha", "setting": "[2]; [5]", "value": "95 to 100", "unit": "%"}, {"measurement": "pest or weed control at 70 g/ha", "setting": "[2]; [5]", "value": "95 to 100", "unit": "%"}, {"measurement": "GR50 GALAP", "setting": "[2]", "value": 4, "unit": "g ai/ha"}, {"measurement": "GR80 GALAP", "setting": "[2]", "value": 6, "unit": "g ai/ha"}, {"measurement": "pest or weed control at 35 g/ha", "setting": "[3]; [6]", "value": "95 to 100", "unit": "%"}, {"measurement": "pest or weed control at 70 g/ha", "setting": "[3]; [6]", "value": "95 to 100", "unit": "%"}, {"measurement": "GR50 CIRAR", "setting": "[3]", "value": 1, "unit": "g ai/ha"}, {"measurement": "GR80 CIRAR", "setting": "[3]", "value": 5, "unit": "g ai/ha"}]}, {"smiles": "Nc1c(Cl)c(C(=O)O)nc(-c2ccc(I)c(F)c2)c1Cl", "note": "[Compound 145, 4-Amino-3,5-dichloro-6-(3-fluoro-4-iodophenyl)picolinic acid]", "values": [{"measurement": "pest or weed control at 35 g/ha", "setting": "[1]; [4]", "value": "60 to 74", "unit": "%"}, {"measurement": "pest or weed control at 70 g/ha", "setting": "[1]; [4]", "value": "75 to 84", "unit": "%"}, {"measurement": "pest or weed control at 140 g/ha", "setting": "[1]; Salsola tragus, post-emergence, 504 h, 140 g ai/ha, post-emergent, read-out: Visual Growth Reduction (%) 21 Days After Application SASKR", "value": "85 to 94", "unit": "%"}, {"measurement": "GR80 SASKR", "setting": "[1]", "value": 79, "unit": "g ai/ha"}, {"measurement": "pest or weed control at 35 g/ha", "setting": "[2]; [5]", "value": "45 to 59", "unit": "%"}, {"measurement": "pest or weed control at 70 g/ha", "setting": "[2]; [5]", "value": "75 to 84", "unit": "%"}, {"measurement": "pest or weed control at 140 g/ha", "setting": "[2]; Galium aparine, post-emergence, 504 h, 140 g ai/ha, post-emergent, read-out: Visual Growth Reduction (%) 21 Days After Application GALAP", "value": "95 to 100", "unit": "%"}, {"measurement": "GR50 GALAP", "setting": "[2]", "value": 18, "unit": "g ai/ha"}, {"measurement": "GR80 GALAP", "setting": "[2]", "value": 54, "unit": "g ai/ha"}, {"measurement": "pest or weed control at 35 g/ha", "setting": "[3]; [6]", "value": "95 to 100", "unit": "%"}, {"measurement": "pest or weed control at 70 g/ha", "setting": "[3]; [6]", "value": "85 to 94", "unit": "%"}, {"measurement": "pest or weed control at 140 g/ha", "setting": "[3]; Cirsium arvense, post-emergence, 504 h, 140 g ai/ha, post-emergent, read-out: Visual Growth Reduction (%) 21 Days After Application CIRAR", "value": "95 to 100", "unit": "%"}, {"measurement": "GR50 CIRAR", "setting": "[3]", "value": 2, "unit": "g ai/ha"}, {"measurement": "GR80 CIRAR", "setting": "[3]", "value": 7, "unit": "g ai/ha"}]}, {"smiles": "Nc1cc(-c2cc(F)c(Br)cc2F)nc(C(=O)O)c1Cl", "note": "[Compound 3]", "values": [{"measurement": "pest or weed control at 35 g/ha", "setting": "[1]; [4]", "value": "75 to 84", "unit": "%"}, {"measurement": "pest or weed control at 70 g/ha", "setting": "[1]; [4]", "value": "85 to 94", "unit": "%"}, {"measurement": "GR50 SASKR", "setting": "[1]", "value": 2, "unit": "g ai/ha"}, {"measurement": "GR80 SASKR", "setting": "[1]", "value": 28, "unit": "g ai/ha"}, {"measurement": "pest or weed control at 35 g/ha", "setting": "[2]; [5]", "value": "95 to 100", "unit": "%"}, {"measurement": "pest or weed control at 70 g/ha", "setting": "[2]; [5]", "value": "95 to 100", "unit": "%"}, {"measurement": "GR50 GALAP", "setting": "[2]", "value": 5, "unit": "g ai/ha"}, {"measurement": "GR80 GALAP", "setting": "[2]", "value": 7, "unit": "g ai/ha"}, {"measurement": "pest or weed control at 35 g/ha", "setting": "[3]; [6]", "value": "60 to 74", "unit": "%"}, {"measurement": "pest or weed control at 70 g/ha", "setting": "[3]; [6]", "value": "75 to 84", "unit": "%"}, {"measurement": "GR50 CIRAR", "setting": "[3]", "value": 18, "unit": "g ai/ha"}, {"measurement": "GR80 CIRAR", "setting": "[3]", "value": 53, "unit": "g ai/ha"}]}, {"smiles": "Nc1c(Cl)c(C(=O)O)nc(-c2ccc(Br)c(F)c2)c1Cl", "note": "[Compound 43, 4-Amino-6-(4-bromo-3-fluorophenyl)-3,5-dichloropicolinic acid]", "values": [{"measurement": "pest or weed control at 35 g/ha", "setting": "[1]; [4]", "value": "75 to 84", "unit": "%"}, {"measurement": "pest or weed control at 70 g/ha", "setting": "[1]; [4]", "value": "75 to 84", "unit": "%"}, {"measurement": "GR50 SASKR", "setting": "[1]", "value": 3, "unit": "g ai/ha"}, {"measurement": "GR80 SASKR", "setting": "[1]", "value": 61, "unit": "g ai/ha"}, {"measurement": "pest or weed control at 35 g/ha", "setting": "[2]; [5]", "value": "95 to 100", "unit": "%"}, {"measurement": "pest or weed control at 70 g/ha", "setting": "[2]; [5]", "value": "95 to 100", "unit": "%"}, {"measurement": "GR50 GALAP", "setting": "[2]", "value": 2, "unit": "g ai/ha"}, {"measurement": "GR80 GALAP", "setting": "[2]", "value": 6, "unit": "g ai/ha"}, {"measurement": "pest or weed control at 35 g/ha", "setting": "[3]; [6]", "value": "85 to 94", "unit": "%"}, {"measurement": "pest or weed control at 70 g/ha", "setting": "[3]; [6]", "value": "85 to 94", "unit": "%"}, {"measurement": "GR50 CIRAR", "setting": "[3]", "value": 0, "unit": "g ai/ha"}, {"measurement": "GR80 CIRAR", "setting": "[3]", "value": 13, "unit": "g ai/ha"}]}, {"smiles": "COC(=O)c1nc(-c2ccc(I)c(F)c2)nc(N)c1OC", "note": "[Compound 27, Methyl 6-amino-2-(3-fluoro-4-iodophenyl)-5-methoxypyrimidine-4-carboxylate]", "values": [{"measurement": "pest or weed control at 35 g/ha", "setting": "[1]; [4]", "value": "60 to 74", "unit": "%"}, {"measurement": "pest or weed control at 70 g/ha", "setting": "[1]; [4]", "value": "60 to 74", "unit": "%"}, {"measurement": "GR50 SASKR", "setting": "[1]", "value": 22, "unit": "g ai/ha"}, {"measurement": "GR80 SASKR", "setting": "[1]", "value": 116, "unit": "g ai/ha"}, {"measurement": "pest or weed control at 35 g/ha", "setting": "[2]; [5]", "value": "85 to 94", "unit": "%"}, {"measurement": "pest or weed control at 70 g/ha", "setting": "[2]; [5]", "value": "85 to 94", "unit": "%"}, {"measurement": "GR50 GALAP", "setting": "[2]", "value": 5, "unit": "g ai/ha"}, {"measurement": "GR80 GALAP", "setting": "[2]", "value": 25, "unit": "g ai/ha"}, {"measurement": "pest or weed control at 35 g/ha", "setting": "[3]; [6]", "value": "75 to 84", "unit": "%"}, {"measurement": "pest or weed control at 70 g/ha", "setting": "[3]; [6]", "value": "75 to 84", "unit": "%"}, {"measurement": "GR50 CIRAR", "setting": "[3]", "value": 18, "unit": "g ai/ha"}, {"measurement": "GR80 CIRAR", "setting": "[3]", "value": 70, "unit": "g ai/ha"}]}]}
